Assay results taken from PubChem BioAssay AID2060488 (Molecular Pharmacology Branch, DTP, NCI, 2025).

Test system: 966289-007-R4-J1-PDC complex spheroid viability
Assay: Anticancer human tumor 966289-007-R4-J1-PDC patient-derived pancreatic adenocarcinoma cell line growth inhibition [GQUAD]
Conditions: for IC50: curve of first compound; for viability, T/C: stronger effect = lower value; active = viability on the fitted dose curve at most 10% of control; inactive = the rest
In short: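 Viability of tumor cells grown as complex spheroids with endothelial and stromal cells, exposed to drug combinations. Top concentration at or near clinical Cmax (else 10 microM), diluted in half-log increments.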

[1] = second compound 0.0316 µM, first compound 0.0316 µM
[2] = second compound 0.0316 µM, first compound 0.316 µM
[3] = second compound 0.1 µM, first compound 0.0316 µM
[4] = second compound 0.1 µM, first compound 0.316 µM
[5] = second compound 0.316 µM, first compound 0.0316 µM
[6] = second compound 0.316 µM, first compound 0.316 µM
[7] = second compound 1 µM, first compound 0.0316 µM
[8] = second compound 1 µM, first compound 0.316 µM
[9] = second compound 3.16 µM, first compound 0.0316 µM
[10] = second compound 3.16 µM, first compound 0.316 µM
[11] = second compound 10 µM, first compound 0.0316 µM
[12] = second compound 10 µM, first compound 0.316 µM
[13] = second compound 0.0316 µM, first compound 0.1 µM
[14] = second compound 0.0316 µM, first compound 1 µM
[15] = second compound 0.0316 µM, first compound 3.16 µM
[16] = second compound 0.0316 µM, first compound 10 µM
[17] = second compound 0.1 µM, first compound 0.1 µM
[18] = second compound 0.1 µM, first compound 1 µM
[19] = second compound 0.1 µM, first compound 3.16 µM
[20] = second compound 0.1 µM, first compound 10 µM
[21] = second compound 0.316 µM, first compound 0.1 µM
[22] = second compound 0.316 µM, first compound 1 µM
[23] = second compound 0.316 µM, first compound 3.16 µM
[24] = second compound 0.316 µM, first compound 10 µM
[25] = second compound 1 µM, first compound 0.1 µM
[26] = second compound 1 µM, first compound 1 µM
[27] = second compound 1 µM, first compound 3.16 µM
[28] = second compound 1 µM, first compound 10 µM
[29] = second compound 3.16 µM, first compound 0.1 µM
[30] = second compound 3.16 µM, first compound 1 µM
[31] = second compound 3.16 µM, first compound 3.16 µM
[32] = second compound 3.16 µM, first compound 10 µM
[33] = second compound 10 µM, first compound 0.1 µM
[34] = second compound 10 µM, first compound 1 µM
[35] = second compound 10 µM, first compound 3.16 µM
[36] = second compound 10 µM, first compound 10 µM
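Also: spheroids exposed to the agents for seven days before readout.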
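For viability, T/C in this document: percent viability relative to DMSO vehicle control wells taken as 100%.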

Cn1ncnc1[C@H]1c2n[nH]c(=O)c3cc(F)cc(c23)N[C@@H]1c1ccc(F)cc1 + CN(C)c1ccc(Nc2c3ccc(NC(=O)CCN4CCCC4)cc3nc3cc(NC(=O)CCN4CCCC4)ccc23)cc1
47.5 nM: IC50 (second compound 10 µM)
137 nM: IC50 (second compound 1 µM)
161 nM: IC50 (second compound 0.0316 µM)
164 nM: IC50 (second compound 0.1 µM)
104 nM: IC50 (second compound 3.16 µM)
168 nM: IC50 (second compound 0.316 µM)
inactive: viability, T/C (second compound 0.0316 µM, first compound 0.000999 µM) 107% | viability, T/C (second compound 0.0316 µM, first compound 0.00316 µM) 101% | viability, T/C (second compound 0.0316 µM, first compound 0.00999 µM) 109% | viability, T/C [1] 104% | viability, T/C (second compound 0.0316 µM, first compound 0.0999 µM) 71.7% | viability, T/C [2] 19% | viability, T/C (second compound 0.1 µM, first compound 0.000999 µM) 105% | viability, T/C (second compound 0.1 µM, first compound 0.00316 µM) 101% | viability, T/C (second compound 0.1 µM, first compound 0.00999 µM) 105% | viability, T/C [3] 105% | viability, T/C (second compound 0.1 µM, first compound 0.0999 µM) 75.2% | viability, T/C [4] 16.9% | viability, T/C (second compound 0.316 µM, first compound 0.000999 µM) 95.1% | viability, T/C (second compound 0.316 µM, first compound 0.00316 µM) 99.7% | viability, T/C (second compound 0.316 µM, first compound 0.00999 µM) 104% | viability, T/C [5] 107% | viability, T/C (second compound 0.316 µM, first compound 0.0999 µM) 73.3% | viability, T/C [6] 21.7% | viability, T/C (second compound 1 µM, first compound 0.000999 µM) 95.9% | viability, T/C (second compound 1 µM, first compound 0.00316 µM) 97.2% | viability, T/C (second compound 1 µM, first compound 0.00999 µM) 104% | viability, T/C [7] 106% | viability, T/C (second compound 1 µM, first compound 0.0999 µM) 62.5% | viability, T/C [8] 16.9% | viability, T/C (second compound 3.16 µM, first compound 0.000999 µM) 91.5% | viability, T/C (second compound 3.16 µM, first compound 0.00316 µM) 109% | viability, T/C (second compound 3.16 µM, first compound 0.00999 µM) 109% | viability, T/C [9] 104% | viability, T/C (second compound 3.16 µM, first compound 0.0999 µM) 51.2% | viability, T/C [10] 13% | viability, T/C (second compound 10 µM, first compound 0.000999 µM) 103% | viability, T/C (second compound 10 µM, first compound 0.00316 µM) 104% | viability, T/C (second compound 10 µM, first compound 0.00999 µM) 102% | viability, T/C [11] 69.1% | viability, T/C (second compound 10 µM, first compound 0.0999 µM) 15%
active: viability, T/C [12] 5.65%

COc1cccc2c1C(=O)c1c(O)c3c(c(O)c1C2=O)CC(O)(C(=O)CO)CC3OC1CC(N)C(O)C(C)O1 (stereo not drawn) + Cc1cnc(CNC(=O)c2c(=O)c3ccc(N4CCCN(C)CC4)nc3n3c2sc2ccccc23)cn1
< 31.6 nM: IC50 (second compound 0.0316 µM) | IC50 (second compound 0.1 µM) | IC50 (second compound 0.316 µM) | IC50 (second compound 1 µM) | IC50 (second compound 3.16 µM) | IC50 (second compound 10 µM)
inactive: viability, T/C [1] 43.6% | viability, T/C [3] 14.1%
active: viability, T/C [13] 6.62% | viability, T/C [2] 2.17% | viability, T/C [14] 0.54% | viability, T/C [15] 0.2% | viability, T/C [16] 0.39% | viability, T/C [17] 7.19% | viability, T/C [4] 2.36% | viability, T/C [18] 0.41% | viability, T/C [19] 0.24% | viability, T/C [20] 0.54% | viability, T/C [5] 8.14% | viability, T/C [21] 4.76% | viability, T/C [6] 1.77% | viability, T/C [22] 0.41% | viability, T/C [23] 0.17% | viability, T/C [24] 0.26% | viability, T/C [7] 4.98% | viability, T/C [25] 3.35% | viability, T/C [8] 1.44% | viability, T/C [26] 0.09% | viability, T/C [27] 0.13% | viability, T/C [28] 0.32% | viability, T/C [9] 3.68% | viability, T/C [29] 1.92% | viability, T/C [10] 0.11% | viability, T/C [30] 0.05% | viability, T/C [31] 0.1% | viability, T/C [32] 0.1% | viability, T/C [11] 0.03% | viability, T/C [33] 0.08% | viability, T/C [12] 0.1% | viability, T/C [34] 0.07% | viability, T/C [35] 0.16% | viability, T/C [36] 0.24%

CC(C)(O)C1CCC(Nc2ccc3ncc(-c4cccc(C(F)(F)F)c4)n3n2)CC1 (stereo not drawn) + Cc1[nH]c2ccc(F)cc2c1-c1nc2c3cccnc3c3ncccc3c2[nH]1
2500 nM: IC50 (second compound 3.16 µM)
2470 nM: IC50 (second compound 1 µM)
> 10000 nM: IC50 (second compound 0.0316 µM)
3110 nM: IC50 (second compound 0.1 µM)
inactive: viability, T/C [1] 108% | viability, T/C [13] 105% | viability, T/C [2] 109% | viability, T/C [14] 89% | viability, T/C [15] 71.7% | viability, T/C [16] 55.3% | viability, T/C [3] 104% | viability, T/C [17] 100% | viability, T/C [4] 99.8% | viability, T/C [18] 93.2% | viability, T/C [19] 47.5% | viability, T/C [20] 51.3% | viability, T/C [5] 101% | viability, T/C [21] 111% | viability, T/C [6] 102% | viability, T/C [22] 105% | viability, T/C [23] 40.7% | viability, T/C [24] 52.6% | viability, T/C [7] 106% | viability, T/C [25] 106% | viability, T/C [8] 98.9% | viability, T/C [26] 110% | viability, T/C [27] 28.9% | viability, T/C [28] 41% | viability, T/C [9] 104% | viability, T/C [29] 107% | viability, T/C [10] 113% | viability, T/C [30] 113% | viability, T/C [31] 22.5% | viability, T/C [32] 47.1% | viability, T/C [11] 97.1% | viability, T/C [33] 111% | viability, T/C [12] 112% | viability, T/C [34] 109% | viability, T/C [35] 26.2% | viability, T/C [36] 35.4%
2960 nM: IC50 (second compound 0.316 µM)
2370 nM: IC50 (second compound 10 µM)

Nc1ccn(C2OC(CO)C(O)C2(F)F)c(=O)n1 (stereo not drawn) + Cc1cnc(CNC(=O)c2c(=O)c3ccc(N4CCCN(C)CC4)nc3n3c2sc2ccccc23)cn1
active: viability, T/C [1] 2.51% | viability, T/C [13] 0.72% | viability, T/C [2] 0.68% | viability, T/C [14] 0.69% | viability, T/C [15] 0.58% | viability, T/C [16] 0.61% | viability, T/C [3] 4.19% | viability, T/C [17] 0.89% | viability, T/C [4] 0.87% | viability, T/C [18] 0.9% | viability, T/C [19] 0.77% | viability, T/C [20] 0.88% | viability, T/C [5] 5.63% | viability, T/C [21] 1.42% | viability, T/C [6] 1.15% | viability, T/C [22] 0.95% | viability, T/C [23] 1.35% | viability, T/C [24] 1.02% | viability, T/C [7] 3.58% | viability, T/C [25] 1.01% | viability, T/C [8] 0.82% | viability, T/C [26] 0.79% | viability, T/C [27] 0.88% | viability, T/C [28] 0.78% | viability, T/C [9] 2.86% | viability, T/C [29] 0.11% | viability, T/C [10] 0.1% | viability, T/C [30] 0.06% | viability, T/C [31] 0.32% | viability, T/C [32] 0.67% | viability, T/C [11] 0.04% | viability, T/C [33] 0.07% | viability, T/C [12] 0.09% | viability, T/C [34] 0.07% | viability, T/C [35] 0.92% | viability, T/C [36] 0.6%
< 31.6 nM: IC50 (second compound 0.0316 µM) | IC50 (second compound 0.1 µM) | IC50 (second compound 0.316 µM) | IC50 (second compound 1 µM) | IC50 (second compound 3.16 µM) | IC50 (second compound 10 µM)
